# Measurements published in patent publication US20060019400A1, “Method for the determination of glucuronides in physiological samples” (University of Maryland, priority 2004, published 2006).
# How the values were obtained:
# [1] = Ethyl glucuronide levels in postmortem urine by SPE and HPLC-PED; design: species or system human; conditions: in vivo
# Protocol: A ternary gradient solvent delivery pump 106 (Model 8800; Spectra Physics, Mountain View, Calif.) equipped with mixing chamber 104 and on-line degasser unit 102 (Model KT-35M; Shodex, Clear Brook, Va.) were used to provide solvent delivery to analytical column 110. In certain embodiments, isocratic separations are performed using a 1% acetic acid/water:acetonitrile (98:2, v/v) mobile phase set to a flow rate of 1.0 mL ? min-1. Injection valve 108 (Model 7010; Rheodyne, Rohnert Park, Calif.) is fitted with a 50 μL injection loop. Separations can be performed using any suitable analytical column, selected based upon the glucuronide(s) of interest. For example, a reversed-phase (C18; 250×4.6 mm, 5 μm, 100 Å) Denali column (Vydac, Columbia, Md.) with guard column (C18; 7.5×4.6 mm, 5 μm; Vydac) can be used, or a bonded-phase silica column comprising a C18 functional group bonded to its surface using a sulfonamide group coupled to an ether linkage (DIONEX® PA column, DIONEX®, Sunnyvale, Calif.) can be used. Post-column addition of NaOH 112 (for example, 600 mM NaOH), necessary to promote PED-activity, was accomplished by a reagent delivery module (RDM, Dionex, Sunnyvale, Calif.). […]
# All urine samples (1.0 mL) were pretreated with 100 μL of 3 M HCl and 3 mL acetonitrile. […] The reconstituted solution was diluted further to bring EtG within the linear range of quantitation. […]
# [2] = after alcohol consumption; cited from earlier work
compound,measurement,setting,value
"CCO[C@@H]1O[C@H](C(=O)O)[C@@H](O)[C@H](O)[C@H]1O [EtG, Ethyl glucuronide]",EtG levels in postmortem samples,[1],3 to 700 µg/mL
same,period of detection after the complete elimination of alcohol from the body,[2],up to 80 h
